Test systems include OVCAR-8 ovarian; ACHN renal; OVCAR-3 ovarian; M14 melanoma; UACC-257 melanoma; HOP-18 NSCLC; UACC-62 melanoma; SF-539 CNS; OVCAR-4 ovarian; SR leukemia.
Common to all, as to assay: NCI-60 cell line screen, 48 h

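Test compounds were applied to cells in 96-well plates for 48 hours at 5 doses. Here, GI50 denotes the concentration required for 50% inhibition of growth. Definition used: TGI = concentration required for complete inhibition of growth.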

As to `NC(=O)C1C(=O)Oc2cccnc21` (centres undefined), the TGI in the test with OVCAR-8 ovarian, in the test on ACHN renal, in the test on OVCAR-3 ovarian, with M14 melanoma, in the test with UACC-257 melanoma and in the test on HOP-18 NSCLC was over 100 µM throughout. The TGI with UACC-62 melanoma and in the test on SF-539 CNS was over 100 µM in each case.
`O=C(Cn1ccnc1[N+](=O)[O-])NCc1ccc(F)cc1`: the TGI with OVCAR-8 ovarian, in the test with ACHN renal, in the test on OVCAR-3 ovarian, with M14 melanoma, with UACC-257 melanoma and with OVCAR-4 ovarian was over 100 µM throughout. Besides, the TGI in the test with HOP-18 NSCLC, in the test on UACC-62 melanoma and with SF-539 CNS was over 100 µM throughout.
For the compound `COc1cc([C@H]2c3cc4c(cc3[C@H](NCc3ccc(F)cc3)C3COC(=O)[C@H]32)OCO4)cc(OC)c1O` (some centres undefined), the TGI was 35.1 µM in the test with OVCAR-8 ovarian; 4.34 µM in the test on ACHN renal; 29.3 µM in the test with OVCAR-3 ovarian; 13.6 µM in the test with M14 melanoma; 43.6 µM with UACC-257 melanoma; over 100 µM in the test with OVCAR-4 ovarian. The TGI with HOP-18 NSCLC was over 100 µM; in the test with UACC-62 melanoma, 6.68 µM; in the test with SF-539 CNS it was 5.07 µM.
Turning to `Cc1ccc(/C=C2\CCCC(C(NO)c3ccc(C)cc3)C2=NO)cc1` (centres undefined), the TGI is over 100 µM in the test with OVCAR-8 ovarian; over 100 µM in the test on ACHN renal; 43.7 µM in the test with OVCAR-3 ovarian; 85.4 µM in the test on M14 melanoma; over 100 µM in the test with UACC-257 melanoma; 45.4 µM in the test on OVCAR-4 ovarian. Further, the TGI in the test with HOP-18 NSCLC, with UACC-62 melanoma and in the test on SF-539 CNS was over 100 µM in each case.
Regarding `C=C(/C=C/C=C(\CO)CCC=C(C)C)[C@H]1CCC2([C@H](CCCO)/C(=C(/C)C=O)CC[C@]2(C)O)[C@H]1O` (some centres undefined), the TGI in the test with OVCAR-8 ovarian, with ACHN renal, in the test on OVCAR-3 ovarian, with M14 melanoma, in the test with UACC-257 melanoma and with OVCAR-4 ovarian was over 100 µM throughout. Moreover, the TGI in the test with HOP-18 NSCLC, in the test on UACC-62 melanoma and in the test on SF-539 CNS was over 100 µM throughout.
Take `Clc1ccc(/C=C/c2csnn2)cc1`: the TGI with OVCAR-8 ovarian, with ACHN renal, in the test on OVCAR-3 ovarian, in the test with M14 melanoma, with UACC-257 melanoma and in the test on OVCAR-4 ovarian was over 100 µM in each case. Also, the TGI in the test on HOP-18 NSCLC, in the test with UACC-62 melanoma and with SF-539 CNS was over 100 µM throughout.
As for `O=S1(=O)CS(=O)(=O)OCCCCCO1`, the TGI with OVCAR-8 ovarian, in the test with ACHN renal, in the test with M14 melanoma, in the test on UACC-257 melanoma, in the test on OVCAR-4 ovarian and in the test on HOP-18 NSCLC was over 100 µM in each case. For the same compound, in the test on UACC-62 melanoma, the TGI is over 100 µM.
For `O=C1Cc2c([nH]c3ccccc23)-c2cc(Br)ccc2N1`, the TGI in the test on OVCAR-8 ovarian, in the test on ACHN renal, in the test with OVCAR-3 ovarian, with M14 melanoma, with UACC-257 melanoma and in the test on OVCAR-4 ovarian was over 100 µM throughout. The TGI in the test with HOP-18 NSCLC and with SF-539 CNS was over 100 µM each time.
Consider `CCCCCCCC(=O)OC[n+]1cccc(-c2c(COC(=O)NC(C)C)c(COC(=O)NC(C)C)c3n2CCC3)c1`, for which the TGI in the test on OVCAR-8 ovarian, with ACHN renal, with OVCAR-3 ovarian, in the test on M14 melanoma, with UACC-257 melanoma and in the test with SR leukemia was over 100 µM each time. In addition, the TGI in the test on OVCAR-4 ovarian is over 100 µM; in the test on UACC-62 melanoma it was over 100 µM; with SF-539 CNS, over 89.5 µM.
In the case of `COc1cc(C(=O)/C=C/c2c(C)n([O-])c3ccc(Cl)cc3[n+]2=O)cc(OC)c1OC`, the GI50 was 3.18 µM in the test on OVCAR-8 ovarian; 4.37 µM in the test on ACHN renal; 1.76 µM in the test on OVCAR-3 ovarian; 4.59 µM in the test on M14 melanoma; 19.5 µM in the test on UACC-257 melanoma; 1.86 µM in the test on SR leukemia. Besides, the results for the GI50 with OVCAR-4 ovarian, with UACC-62 melanoma and with SF-539 CNS were 9.29 µM, 3.87 µM and 11.2 µM, respectively. Besides, the TGI in the test with OVCAR-8 ovarian was over 100 µM; in the test with ACHN renal it was 18 µM; in the test with OVCAR-3 ovarian, 7.98 µM; in the test on M14 melanoma, over 100 µM; in the test with UACC-257 melanoma, over 100 µM; in the test on SR leukemia it was 5.65 µM. The values for the TGI in the test with OVCAR-4 ovarian, with UACC-62 melanoma and in the test with SF-539 CNS were over 100 µM, 23.1 µM and 27.4 µM, respectively.
In the case of `COC(=O)C1C(=O)NC2(C)CC1c1ccccc1O2` (centres undefined), the TGI in the test with OVCAR-8 ovarian is over 100 µM; in the test on ACHN renal, over 100 µM; in the test on OVCAR-3 ovarian, over 10 µM; in the test with M14 melanoma it was over 10 µM; in the test on UACC-257 melanoma it was over 100 µM; in the test with SR leukemia, over 100 µM. Moreover, the TGI in the test with OVCAR-4 ovarian, with UACC-62 melanoma and with SF-539 CNS was over 100 µM throughout.

Source of the values: PubChem BioAssay (NCI).
